These results are taken from PubChem BioAssay (NCI).

Among the test systems are MDA-MB-435; OVCAR-5 ovarian; LOX IMVI melanoma; TK-10 renal; 786-0 renal; M14 melanoma; CCRF-CEM leukemia; SK-MEL-2 melanoma; EKVX NSCLC; NCI-H23 lung.
Common to all, as to assay: DTP human tumour cell line panel, 48 h

Several values for one entry are separate records, joined by “and”; a condition that tells them apart may be missing. Equal values may be shown once.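 Where inhibition never reached the appropriate level, the endpoint shown equals the highest concentration tested. Otherwise, values were interpolated linearly from a five-concentration, 48-hour dose response in 96-well plates. GI50 = concentration required for 50% inhibition of growth. TGI marks complete inhibition of growth.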

What is called GI50 is the concentration giving 50% growth inhibition. The term TGI denotes the concentration at which net growth stops. The low end stands for more potent growth arrest, the high end for less potent growth arrest. Consider `COc1cc(/C=C/C(=O)c2c(C)n([O-])c3ccccc3[n+]2=O)cc(OC)c1OC`, for which the GI50 was 5.4 µM with MDA-MB-435; 11.6 µM in the test with OVCAR-5 ovarian; 5.25 µM with LOX IMVI melanoma; 11.3 µM with TK-10 renal; 6.94 µM in the test with 786-0 renal; 5.28 µM in the test with M14 melanoma. For the same compound, the GI50 in the test on CCRF-CEM leukemia is 3.66 µM; in the test on SK-MEL-2 melanoma, 4.63 µM; with EKVX NSCLC it was 2.43 µM. Moreover, the TGI with MDA-MB-435 was determined as 22.5 µM; with OVCAR-5 ovarian, 24.6 µM; with LOX IMVI melanoma it was 17.4 µM; in the test on TK-10 renal, 24 µM; in the test with 786-0 renal it was 20.1 µM; with M14 melanoma it was 18.8 µM. For the same compound, the TGI with CCRF-CEM leukemia stood at 23.3 µM; in the test on SK-MEL-2 melanoma it was 17.2 µM; with EKVX NSCLC, 6.86 µM.
Take `O=C1/C(=C/c2ccc(F)cc2)COc2ccc(O)c(O)c21`: the GI50 was 2.07 µM with MDA-MB-435; 3 µM in the test on OVCAR-5 ovarian; 1.03 µM with LOX IMVI melanoma; 4.74 µM with TK-10 renal; 1.84 µM in the test on 786-0 renal; 2.65 µM in the test with NCI-H23 lung. For the same compound, the GI50 in the test on M14 melanoma was 3.21 µM; with CCRF-CEM leukemia, 0.313 µM; in the test on SK-MEL-2 melanoma it was 4.61 µM; with EKVX NSCLC, 3.29 µM. Besides, the TGI was 8.78 µM in the test with MDA-MB-435; 8.99 µM in the test with OVCAR-5 ovarian; 2.39 µM in the test on LOX IMVI melanoma; greater than 100 µM in the test on TK-10 renal; 5.63 µM with 786-0 renal; 13.7 µM with NCI-H23 lung. The TGI with M14 melanoma came to 19.2 µM; in the test on CCRF-CEM leukemia it was 1.46 µM; with SK-MEL-2 melanoma, 47.5 µM; in the test on EKVX NSCLC, 18.4 µM.
As for `NC(CSC(c1ccccc1)(c1ccccc1)c1ccccc1)C(=O)O` (centres undefined), the GI50 in the test on MDA-MB-435 was 0.275 µM; with OVCAR-5 ovarian, 4.28 µM; in the test with LOX IMVI melanoma, 6.26 µM and 4.14 µM; with TK-10 renal, 6.22 µM; in the test on 786-0 renal it was 1.41 µM and 4.24 µM; in the test with M14 melanoma, 0.426 µM and 0.389 µM. The GI50 is 1.59 µM and 0.942 µM in the test on CCRF-CEM leukemia; 1.51 µM and 0.886 µM with SK-MEL-2 melanoma; 3.24 µM in the test with EKVX NSCLC. The TGI was 0.648 µM and 0.791 µM in the test with MDA-MB-435; 89.4 µM and > 100 µM in the test with OVCAR-5 ovarian; 24.3 µM and > 100 µM with LOX IMVI melanoma; 83.5 µM in the test on TK-10 renal; 70.3 µM and > 100 µM in the test on 786-0 renal; 7.15 µM and 51.7 µM with NCI-H23 lung. The TGI in the test with M14 melanoma was 6.01 µM and 16.2 µM and 27.5 µM; in the test on CCRF-CEM leukemia, 19.4 µM and > 100 µM; in the test with SK-MEL-2 melanoma, 5.34 µM and 9.72 µM and 5.63 µM; with EKVX NSCLC, 16 µM.
`Nc1n[n+]([O-])c2ccc(Cl)cc2[n+]1[O-]`: the TGI is 74.2 µM with MDA-MB-435; 79 µM with OVCAR-5 ovarian; greater than 100 µM with LOX IMVI melanoma; greater than 100 µM with TK-10 renal; greater than 100 µM in the test with 786-0 renal; 46.4 µM with NCI-H23 lung. Moreover, the TGI is 40.4 µM in the test with M14 melanoma, greater than 100 µM in the test with CCRF-CEM leukemia, greater than 100 µM in the test on SK-MEL-2 melanoma and 80.1 µM in the test with EKVX NSCLC.
`O=C(CSSCC(=O)c1ccc(Cl)cc1)c1ccc(Cl)cc1`: the GI50 was 2.57 µM with MDA-MB-435; 5.83 µM with OVCAR-5 ovarian; 2.6 µM in the test with LOX IMVI melanoma; 3.83 µM with TK-10 renal; 4.41 µM in the test on 786-0 renal; 8.22 µM in the test on NCI-H23 lung. Moreover, the GI50 is 5.59 µM in the test on M14 melanoma, 3.39 µM in the test on CCRF-CEM leukemia, 3.8 µM with SK-MEL-2 melanoma and 9.8 µM in the test with EKVX NSCLC. Moreover, the TGI in the test with MDA-MB-435 was determined as 11 µM; with OVCAR-5 ovarian, 21.5 µM; with LOX IMVI melanoma, 8.2 µM; in the test on TK-10 renal it was 13.8 µM; with 786-0 renal, 14.5 µM; in the test with NCI-H23 lung, 30.3 µM. Besides, the TGI in the test on M14 melanoma is 22.1 µM; in the test with CCRF-CEM leukemia, greater than 100 µM; with SK-MEL-2 melanoma, 15.1 µM; with EKVX NSCLC it was greater than 100 µM.
As to `Cc1cccc(CNc2c3ccccc3nc3ccccc23)c1`, the GI50 in the test with MDA-MB-435 is 1.66 µM; in the test with OVCAR-5 ovarian it was 1.92 µM; with LOX IMVI melanoma it was 1.49 µM; with TK-10 renal it was 2.83 µM; with 786-0 renal, 1.89 µM; in the test on NCI-H23 lung it was 1.63 µM. The GI50 is 1.57 µM in the test on M14 melanoma, 2.77 µM in the test with CCRF-CEM leukemia, 1.94 µM in the test with SK-MEL-2 melanoma and 2.31 µM with EKVX NSCLC. For the same compound, the TGI came to 3.22 µM in the test on MDA-MB-435; 6.81 µM with OVCAR-5 ovarian; 2.9 µM with LOX IMVI melanoma; 12.2 µM in the test on TK-10 renal; 4.09 µM in the test on 786-0 renal; 4.22 µM in the test with NCI-H23 lung. The TGI was determined as 3.35 µM in the test with M14 melanoma, 15 µM with CCRF-CEM leukemia, 4.14 µM with SK-MEL-2 melanoma and 8.97 µM with EKVX NSCLC.
In the case of `O=C1OC(c2ccc([N+](=O)[O-])cc2)=N/C1=C\c1ccc(Cl)cc1`, the concentration for total growth inhibition (TGI) in the test with MDA-MB-435, with OVCAR-5 ovarian, in the test with LOX IMVI melanoma, in the test on TK-10 renal, in the test with 786-0 renal and with NCI-H23 lung was greater than 100 µM in each case. Also, the TGI with M14 melanoma, with CCRF-CEM leukemia, in the test with SK-MEL-2 melanoma and in the test on EKVX NSCLC was greater than 100 µM in each case.
With `CCN(Cc1cc(Cl)cc(C)c1O)Cc1c(O)ccc2ccccc12`, the TGI in the test on MDA-MB-435 is 29.9 µM; with OVCAR-5 ovarian, 35.2 µM; in the test with LOX IMVI melanoma it was 38.8 µM; in the test with TK-10 renal, 31 µM; in the test on 786-0 renal, 34 µM; with NCI-H23 lung, 32.1 µM. Also, the TGI in the test with M14 melanoma came to 35.9 µM; in the test with CCRF-CEM leukemia, 42.5 µM; in the test with SK-MEL-2 melanoma, 32.7 µM; in the test on EKVX NSCLC, 32.8 µM.
For `O=C(Nc1cc(Cl)c(I)c(Cl)c1)C(F)(F)F`, the TGI with MDA-MB-435 is greater than 100 µM; with OVCAR-5 ovarian it was 83 µM; in the test on 786-0 renal it was 74.4 µM; with NCI-H23 lung it was 70.8 µM; in the test on M14 melanoma, 60.3 µM; in the test on CCRF-CEM leukemia it was 66.4 µM. The TGI in the test on EKVX NSCLC is greater than 100 µM.
